The values below come from patent publication US20070225344A1, “Sulfonamide derivatives to treat infection with hepatitis C virus” (priority 2006, published 2007).

Structures are written as SMILES.

T1 sequence (P26663 2420-2997, looked up, natural form): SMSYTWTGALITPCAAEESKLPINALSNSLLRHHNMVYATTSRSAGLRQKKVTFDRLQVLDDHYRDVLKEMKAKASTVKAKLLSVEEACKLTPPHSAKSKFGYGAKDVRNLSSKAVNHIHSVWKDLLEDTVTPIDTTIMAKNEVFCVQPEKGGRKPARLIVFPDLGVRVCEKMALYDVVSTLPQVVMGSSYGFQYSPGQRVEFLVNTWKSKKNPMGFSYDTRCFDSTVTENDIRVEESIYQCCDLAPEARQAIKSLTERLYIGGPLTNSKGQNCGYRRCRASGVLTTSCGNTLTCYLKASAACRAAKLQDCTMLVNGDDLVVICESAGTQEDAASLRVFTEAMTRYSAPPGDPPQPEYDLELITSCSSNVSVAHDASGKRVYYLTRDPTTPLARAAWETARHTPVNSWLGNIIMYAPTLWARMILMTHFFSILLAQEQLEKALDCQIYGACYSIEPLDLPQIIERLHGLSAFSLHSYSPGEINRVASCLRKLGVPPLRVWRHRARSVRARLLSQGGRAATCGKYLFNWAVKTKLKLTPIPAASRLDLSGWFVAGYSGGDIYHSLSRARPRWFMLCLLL

One data set has as its target T1, HCV RdRp NS5B d21BK (BK strain, 1b subtype) (Hepatitis C virus genotype 1b, UniProt P26663).
T1 construct: NS5B from the BK strain (1b subtype) is expressed in E. coli as a protein in which the 21 C-terminal amino acids are replaced; made in house; host or cells: E. coli
Description: HCV polymerase (NS5B) RNA-dependent RNA polymerase inhibition, 33P-GTP filter assay. In kind it is biochemical. To be noted: in vitro; NS5B BK strain (1b subtype), 24 nM enzyme, 2 h at room temperature; read-out: HCV Polymerase Median IC50. From the text:
The ability of the compounds of the present invention to inhibit hepatitis C polymerase was established by the following experimental procedure:
NS5B from the BK strain (1b subtype) is expressed in E. coli as a protein in which the 21 C-terminal amino acids are replaced with a short linker and a hexahistidine tag (GSHHHHHH). The purified protein is mixed with radioactive nucleotides and allowed to replicate a heteropolymeric RNA substrate, primed by an endogenous short hairpin, resulting in an approximately 760 nt product. The radioactive product is captured on a filter and quantitated after removal of the unincorporated nucleotides.
(1) Compounds 10 μl at 10 μg/ml in 15% DMSO
Add 20 μl enzyme mix into each well of the assay plate. Incubate compound and enzyme at room temperature for 15 minutes.
(3) Template Mix—Prepare Ahead.
Spin down a tube of RNA (5 μg/tube stored in 75% ethanol and 0.3 M sodium acetate) in a microcentrifuge for 20 min. at 4° C. One tube is enough for 1 to 1½ plates. Remove as much ethanol from the tube as possible by inverting the tube. Be gentle, pellet RNA may not adhere to the tube. Vacuum dry the RNA. Resuspend the RNA by adding 1 ml of DEPC water, close the cap of the tube tightly. To dissolve RNA, incubate RNA solution on ice for ˜60 min. and gently vortex. Spin briefly to ensure all RNA solution is down to the bottom of the tube before opening cap. Gently transfer RNA solution into a 5 ml or larger tube. Add another 3 ml of DEPC water (total 4 ml of volume).
Add the following volumes of reagents.
Add 20 μl template mix per reaction (i.e. 20 ng of POF per reaction or ˜3 nM)
(4) Incubate reaction at room temperature (22-25° C.) for 2 hours.
(5) Stop reaction by adding 50 μl of 170 mM EDTA.
Final concentration of EDTA is 85 mM.
(6) Prewet filters of Millipore Multiscreen filter plate by adding 200 μl of 0.5 M sodium phosphate buffer, pH 7.0 into each well. Let stand at room temperature for 2-3 min.
(7) Place the Multiscreen filter plate onto a Millipore Manifold and turn on vacuum to allow buffer to flow through. Turn off vacuum. Transfer 80 μl of the reaction product into each well of the filter plate. Let stand for 2-3 min. Turn on vacuum to filter reaction product.
(8) Turn off vacuum. Add 200 μl of 0.5 M sodium phosphate buffer, pH 7.0 into each well to wash filter. Turn on vacuum.
Repeat step (8) three more times.
(9) Remove polypropylene bottom. Spot dry filter at the bottom with paper towel. Air dry filter plate on a bench for 1 hr. Add 40 μl Super Mix scintillant. Seal top of the plate with a tape. Place plate into a Packard carrier or MicroBeta carrier.
(10) Count plate using a Packard Topcount or MicroBeta counter. Program 10 for ^33P in Top count or ^33P program in micro-beta.
Percent inhibition is calculated after background subtraction as a percent reduction of activity relative to the positive control (average value of the plate excluding the negative controls).
Regarding `O=C(O)[C@@H]1CCCN1S(=O)(=O)c1cc(Br)cc(Cl)c1O` [Example 8, 1-[(5-bromo-3-chloro-2-hydroxyphenyl)sulfonyl]-L-proline], the IC50 (commonly the concentration that gives 50% inhibition) came to 0.4 µM.
The same measure, in the same setting: in the case of `O=C(c1ccccc1)[C@@H]1CCCN1S(=O)(=O)c1cc(Cl)cc(Cl)c1O` [Example 30, {(2S)-1-[(3,5-dichloro-2-hydroxyphenyl)sulfonyl]pyrrolidin-2-yl}(phenyl)methanone] it was 7.52 µM.
Same read-out and setting: in the case of `O=C(O)[C@@H]1C[C@@H](O)CN1S(=O)(=O)c1cc(Cl)c(Cl)c(Cl)c1O` [Example 3, (4R)-4-hydroxy-1-[(3,4,5-trichloro-2-hydroxyphenyl)sulfonyl]-L-proline] it was 0.07 µM.
On to `O=C(O)[C@@H]1C[C@@H](O)CN1S(=O)(=O)c1cc(Cl)cc(Cl)c1O` [Example 10, (4R)-1-[(3,5-dichloro-2-hydroxyphenyl)sulfonyl]-4-hydroxy-L-proline], for which the IC50 came to 0.67 µM.
Take `O=C(O)[C@@H]1C[C@@H](O)CN1S(=O)(=O)c1cc(Cl)cc(Br)c1O` [Example 7, (4R)-1-[(3-bromo-5-chloro-2-hydroxyphenyl)sulfonyl]-4-hydroxy-L-proline]: the IC50 stood at 0.47 µM.
Still for that read-out and setting: in the case of `O=C(O)[C@@H]1CSCN1S(=O)(=O)c1cc(Cl)cc(Br)c1O` [Example 56, (4R)-3-[(3-bromo-5-chloro-2-hydroxyphenyl)sulfonyl]-1,3-thiazolidine-4-carboxylic acid] it was 11.2 µM; in that of `O=C(O)[C@@H]1CCCN1S(=O)(=O)c1cc(Cl)cc(Cl)c1O` [Example 11, 1-[(3,5-dichloro-2-hydroxyphenyl)sulfonyl]-L-proline], 0.89 µM.
Still for that read-out and setting: next, `O=C(O)[C@@H]1CSCN1S(=O)(=O)c1cc(F)cc(Cl)c1O` [Example 49, (4R)-3-[(3-chloro-5-fluoro-2-hydroxyphenyl)sulfonyl]-1,3-thiazolidine-4-carboxylic acid]: 2.13 µM.
On the same count and under the same terms, next, `CCC(=O)[C@@H]1CCCN1S(=O)(=O)c1cc(Cl)cc(Cl)c1O` [Example 29, 1-{(2S)-1-[(3,5-dichloro-2-hydroxyphenyl)sulfonyl]pyrrolidin-2-yl}propan-1-one]: 7.29 µM.
Turning to `Cc1cc(S(=O)(=O)N2CSC[C@H]2C(=O)O)c(N)cc1Cl` [Example 54, (4R)-3-[(2-amino-4-chloro-5-methylphenyl)sulfonyl]-1,3-thiazolidine-4-carboxylic acid], the IC50 came to 4.75 µM.
On to `O=C(O)[C@@H]1C[C@@H](O)CN1S(=O)(=O)c1cc(F)cc(Cl)c1O` [Example 18, (4R)-1-[(3-chloro-5-fluoro-2-hydroxyphenyl)sulfonyl]-4-hydroxy-L-proline], for which the IC50 came out at 3.28 µM.
The same measure, in the same setting: next, `O=C(O)[C@@H]1C[C@@H](O)CN1S(=O)(=O)c1cc(Br)cc(Br)c1O` [Example 6, (4R)-1-[(3,5-dibromo-2-hydroxyphenyl)sulfonyl]-4-hydroxy-L-proline]: 0.46 µM; `O=C(O)[C@H]1CSCN1S(=O)(=O)c1cc(F)cc(Cl)c1O` [Example 57, (4S)-3-[(3-chloro-5-fluoro-2-hydroxyphenyl)sulfonyl]-1,3-thiazolidine-4-carboxylic acid]: 14.4 µM.
Consider `O=C(O)[C@H]1CSCN1S(=O)(=O)c1cc(Cl)cc(Br)c1O` [Example 50, (4S)-3-[(3-bromo-5-chloro-2-hydroxyphenyl)sulfonyl]-1,3-thiazolidine-4-carboxylic acid], for which the IC50 was 0.87 µM.
The same measure, in the same setting: next, `O=C(O)[C@@H]1CCCCN1S(=O)(=O)c1cc(Cl)cc(Cl)c1O` [Example 43, (2S)-1-[(3,5-dichloro-2-hydroxyphenyl)sulfonyl]piperidine-2-carboxylic acid]: 7.1 µM; `O=C(O)[C@H]1CSCN1S(=O)(=O)c1cc(Cl)c(Cl)c(Cl)c1O` [Example 46, (4S)-3-[(3,4,5-trichloro-2-hydroxyphenyl)sulfonyl]-1,3-thiazolidine-4-carboxylic acid]: 0.26 µM.
Same read-out and setting: in the case of `O=C(O)[C@@H]1CCCN1S(=O)(=O)c1cc(Br)cc(Br)c1O` [Example 9, 1-[(3,5-dibromo-2-hydroxyphenyl)sulfonyl]-L-proline] it was 0.56 µM; in that of `O=C(O)[C@@H]1CCCN1S(=O)(=O)c1c(Cl)cc(Cl)cc1Cl` [Example 32, 1-[(2,4,6-trichlorophenyl)sulfonyl]-L-proline], 9.6 µM; in that of `Cc1cc(N)c(S(=O)(=O)N2CCCC[C@@H]2C(=O)O)cc1Cl` [Example 44, (2R)-1-[(2-amino-5-chloro-4-methylphenyl)sulfonyl]piperidine-2-carboxylic acid], 7.9 µM.
Same read-out and setting: in the case of `Cc1cc(N)c(S(=O)(=O)N2CSC[C@H]2C(=O)O)cc1Cl` [Example 58, (4R)-3-[(2-amino-5-chloro-4-methylphenyl)sulfonyl]-1,3-thiazolidine-4-carboxylic acid] it was 1.98 µM.
For the molecule `N#C[C@@H]1CCCN1S(=O)(=O)c1cc(Cl)cc(Cl)c1O` [Example 2, (2S)-1-[(3,5-dichloro-2-hydroxyphenyl)sulfonyl]pyrrolidine-2-carbonitrile], the IC50 was 1.04 µM.
On the same count and under the same terms, in the case of `O=C(O)[C@@H]1CCCN1S(=O)(=O)c1cc(Cl)c(Cl)cc1Cl` [Example 36, 1-[(2,4,5-trichlorophenyl)sulfonyl]-L-proline] it was 21.9 µM; in that of `O=C(O)[C@@H]1CCCN1S(=O)(=O)c1cc(Cl)cc(Br)c1O` [Example 5, 1-[(3-bromo-5-chloro-2-hydroxyphenyl)sulfonyl]-L-proline], 0.26 µM; in that of `O=C(O)[C@@H]1CCCCN1S(=O)(=O)c1cc(Cl)cc(Br)c1O` [Example 39, (2S)-1-[(3-bromo-5-chloro-2-hydroxyphenyl)sulfonyl]piperidine-2-carboxylic acid], 0.45 µM.

Tested on in another data set: not given
Assay: not given
Conditions: not given
For `O=C(O)[C@@H]1CCCN1S(=O)(=O)c1cc(Cl)cc(Cl)c1O` [Example 11, 1-[(3,5-dichloro-2-hydroxyphenyl)sulfonyl]-L-proline], the melting point – broadly, the temperature, or range, at which the solid turns liquid – was 107.4 °C.
